Experimental findings from US20250066363A1, “Bicyclic DGK Inhibitors” (Incyte Corporation, priority 2023, published 2025) are described below.

Structures are written as SMILES.

In general, IC50 refers to the concentration at which inhibition is half-maximal.

One test has as its target DGKα (Homo sapiens (Human), UniProt P23743). In words: In vitro DGKα inhibition assay (ADP-Glo). It is filed as biochemical. The settings on record: first column of Table A; His-tagged human recombinant DGKα 0.1 nM, 50 μM ATP, 20 μM DLG. A general note: ADP-Glo first removes unused ATP, then detects ADP through luciferase.
The next test addresses DGKζ (Homo sapiens (Human), UniProt Q13574). Put plainly: In vitro DGKζ inhibition assay (ADP-Glo). It is filed as biochemical. The settings on record: second column of Table A, head printed DGKα, presumably DGKζ; His-tagged human recombinant DGKζ 0.4 nM, 30 μM ATP, 20 μM DLG.

Chain of DGKα (P23743 whole entry): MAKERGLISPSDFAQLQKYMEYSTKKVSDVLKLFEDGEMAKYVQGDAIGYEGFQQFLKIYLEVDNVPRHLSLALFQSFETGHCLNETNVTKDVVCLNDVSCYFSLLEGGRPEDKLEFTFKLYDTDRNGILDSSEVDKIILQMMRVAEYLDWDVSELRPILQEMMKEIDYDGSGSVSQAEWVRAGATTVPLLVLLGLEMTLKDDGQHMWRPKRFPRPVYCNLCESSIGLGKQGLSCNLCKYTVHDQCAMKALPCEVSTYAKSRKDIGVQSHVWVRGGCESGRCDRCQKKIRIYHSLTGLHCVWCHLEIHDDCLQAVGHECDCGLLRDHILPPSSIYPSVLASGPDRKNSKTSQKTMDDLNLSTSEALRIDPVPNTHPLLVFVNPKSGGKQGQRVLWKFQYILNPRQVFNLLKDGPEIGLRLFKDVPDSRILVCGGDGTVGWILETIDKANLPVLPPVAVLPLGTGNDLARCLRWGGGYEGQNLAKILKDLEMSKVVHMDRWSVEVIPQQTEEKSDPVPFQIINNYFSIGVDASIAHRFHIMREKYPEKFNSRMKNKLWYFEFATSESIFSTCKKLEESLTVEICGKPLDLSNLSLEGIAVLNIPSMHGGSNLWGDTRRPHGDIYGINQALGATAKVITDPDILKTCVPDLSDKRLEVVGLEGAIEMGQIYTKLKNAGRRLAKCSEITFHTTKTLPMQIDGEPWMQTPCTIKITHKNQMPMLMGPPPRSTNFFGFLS
Chain of DGKζ (Q13574 whole entry): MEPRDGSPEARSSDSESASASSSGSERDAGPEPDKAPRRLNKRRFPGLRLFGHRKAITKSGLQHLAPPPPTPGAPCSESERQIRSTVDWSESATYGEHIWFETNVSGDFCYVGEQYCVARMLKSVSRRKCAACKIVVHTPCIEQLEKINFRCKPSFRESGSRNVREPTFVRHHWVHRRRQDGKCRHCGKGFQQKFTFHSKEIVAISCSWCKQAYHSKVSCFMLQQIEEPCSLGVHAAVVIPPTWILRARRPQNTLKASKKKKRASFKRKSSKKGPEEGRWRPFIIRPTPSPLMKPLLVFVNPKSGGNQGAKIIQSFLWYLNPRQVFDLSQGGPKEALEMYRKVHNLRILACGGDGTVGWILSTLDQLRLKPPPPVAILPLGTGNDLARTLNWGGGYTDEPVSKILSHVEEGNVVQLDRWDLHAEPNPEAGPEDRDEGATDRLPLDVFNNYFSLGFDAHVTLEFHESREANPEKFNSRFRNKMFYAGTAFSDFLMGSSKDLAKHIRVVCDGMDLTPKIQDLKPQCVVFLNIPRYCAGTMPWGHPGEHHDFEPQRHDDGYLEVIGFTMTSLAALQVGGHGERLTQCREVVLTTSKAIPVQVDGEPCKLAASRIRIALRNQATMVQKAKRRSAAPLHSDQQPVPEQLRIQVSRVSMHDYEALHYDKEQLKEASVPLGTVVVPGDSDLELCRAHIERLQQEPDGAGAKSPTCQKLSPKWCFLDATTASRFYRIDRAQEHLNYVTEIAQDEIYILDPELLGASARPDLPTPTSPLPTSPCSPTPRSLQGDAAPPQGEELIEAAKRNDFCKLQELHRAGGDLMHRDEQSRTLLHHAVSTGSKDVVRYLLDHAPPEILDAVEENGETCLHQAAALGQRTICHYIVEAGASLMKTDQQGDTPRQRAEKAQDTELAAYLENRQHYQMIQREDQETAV

Consider `CC[C@@H]1CN(c2nc(=O)n(C)c3c2nc(C)n3C[C@H]2OCC[C@H]2O)[C@@H](C)CN1[C@H](CC)c1ccc(C(F)(F)F)cc1` [Example 72, 6-((2S,5R)-5-ethyl-2-methyl-4-((R)-1-(4-(trifluoromethyl)phenyl)propyl)piperazin-1-yl)-9-(((2R,3R)-3-hydroxytetrahydrofuran-2-yl)methyl)-3,8-dimethyl-3,9-dihydro-2H-purin-2-one], for which the IC50 at DGKα and at DGKζ was not above 10 nM each time.
With `Cc1nc2c(N3C[C@@H](C)N([C@H](c4ccc(C(F)(F)F)cc4F)C(C)C)C[C@@H]3C)nc(=O)n(C)c2n1C[C@@H]1CCCO1` [Example 51, 6-((2S,5R)-4-((S)-1-(2-Fluoro-4-(trifluoromethyl)phenyl)-2-methylpropyl)-2,5-dimethylpiperazin-1-yl)-3,8-dimethyl-9-(((S)-tetrahydrofuran-2-yl)methyl)-3,9-dihydro-2H-purin-2-one], the IC50 at DGKα and on DGKζ was not above 10 nM throughout.
In the case of `C[C@@H]1CN(c2nc(=O)n(C)c3c2cnn3C)[C@@H](C)CN1C(c1ccc(F)cc1)c1ccc(F)cc1` [Example 7, 4-((2S,5R)-4-(Bis(4-fluorophenyl)methyl)-2,5-dimethylpiperazin-1-yl)-1,7-dimethyl-1,7-dihydro-6H-pyrazolo[3,4-d]pyrimidin-6-one], the IC50 on DGKα was not above 10 nM; on DGKζ, more than 1000 nM.
In the case of `C[C@@H]1CN(c2nc(=O)n(C)c3c2nnn3C[C@H]2CCCO2)[C@@H](C)CN1C(c1ccc(F)cc1)c1ccc(F)cc1` [Example 13, 7-((2S,5R)-4-(Bis(4-fluorophenyl)methyl)-2,5-dimethylpiperazin-1-yl)-4-methyl-3-(((R)-tetrahydrofuran-2-yl)methyl)-3,4-dihydro-5H-[1,2,3]triazolo[4,5-d]pyrimidin-5-one], the IC50 on DGKα and at DGKζ was not above 10 nM throughout.
